Reference: patent US20260062376A1, “SQUARAMIDE DERIVATIVES AS CB1 ALLOSTERIC MODULATORS” (RESEARCH TRIANGLE INSTITUTE, priority 2022, published 2026)

Tests used:
[1] = system: MDCK-mdr1 cells; test: Bidirectional MDCK-MDR1 permeability assay; format: in vitro ADME
Description: Permeability Assessment. Bidirectional MDCK-MDR1 permeability assay was performed by Paraza Pharma Inc. (Montreal, Canada). MDCK-mdr1 cells at passage 5 were seeded onto permeable polycarbonate supports in 12-well Costar Transwell plates and allowed to grow and differentiate for 3 days. On day 3, culture medium (DMEM supplemented with 10% FBS) was removed from both sides of the transwell inserts and cells were rinsed with warm HBSS. After the rinse step, the chambers were filled with warm transport buffer (HBSS containing 10 mM HEPES, 0.25% BSA, pH 7.4) and the plates were incubated at 37° C. for 30 min prior to TEER (Trans Epithelial Electric Resistance) measurements.
The buffer in the donor chamber (apical side for A-to-B assay, basolateral side for B-to-A assay) was removed and replaced with the working solution (10 μM test article in transport buffer). The plates were then placed at 37° C. under light agitation. At designated time points (30, 60 and 90 min), an aliquot of transport buffer from the receiver chamber was removed and replenished with fresh transport buffer. Samples were quenched with ice-cold ACN containing internal standard and then centrifuged to pellet protein. Resulting supernatants are further diluted with 50/50 ACN/H2O (H2O only for Atenolol) and submitted for LC-MS/MS analysis. Reported apparent permeability (Papp) values were calculated from single determination. Atenolol and propranolol were tested as low and moderate permeability references.
The apparent permeability (Papp, measured in cm/s) of a compound is determined according to the following formula from two independent experiments in duplicate: […]
where dQ/dt is the net rate of appearance in the receiver compartment; A is the area of the Transwell measured in cm^2 (1.12 cm^2); Ci is the initial concentration of compound added to the donor chamber; and 60 is the conversion factor for minute to second.

[2] = Kinetic solubility assessment; format: physicochemical; conditions: phosphate buffer solution, 2 hours at room temperature, target 400 μM
Description: The solution was agitated on a VX-2500 multi-tube vortexer (VWR International, Radnor, Pennsylvania, United States of America) for 2 hours at room temperature. Following agitation, the sample was filtrated on a glass-fiber filter (1 μm) and the eluate was diluted 400-fold with a mixture of acetonitrile: water (1:1). On each experimental occasion, nicardipine and imipramine were assessed as reference compounds for low and high solubility, respectively. All samples were assessed in triplicate and analyzed by LC-MS/MS using electrospray ionization against standards prepared in the same matrix.

[3] = Plasma protein binding; format: in vitro ADME
[4] = system: rats; test: Locomotion in rats; format: in vivo, rat; conditions: 5.6 mg/kg i.p.
[5] = target: Human CB1 (Homo sapiens (Human), UniProt P21554); test: Calcium mobilization assay (antagonist mode vs CP55,940); format: cell-based; conditions: CHO-RD-HGA16 cells stably expressing human CB1; against EC50 concentration of CP55,940; mean ± SEM, at least three experiments
Description: Calcium Mobilization Assay: CHO-RD-HGA16 cells (Molecular Devices, San Jose, California, United States of America) stably expressing the human CB1 receptor were plated into 96-well black-walled assay plates at 25,000 cells/well in 100 μL of Ham's F12 (supplemented with 10% fetal bovine serum, 100 units of penicillin/streptomycin, and 100 μg/mL Normocin) and incubated overnight at 37° C., 5% CO2. Calcium 5 dye (Molecular Devices, San Jose, California, United States of America) was reconstituted according to the manufacturer's instructions. The reconstituted dye was diluted 1:40 in prewarmed (37° C.) assay buffer (lx HBSS, 20 mM HEPES, 2.5 mM probenecid, pH 7.4 at 37° C.). Growth medium was removed, and the cells were gently washed with 100 μL of prewarmed (37° C.) assay buffer. […] After the pretreatment incubation period, the plate was read with a FLIPR Tetra (Molecular Devices, San Jose, California, United States of America). […] Relative fluorescence units (RFU) were plotted against the log of compound concentrations. […] Test compound RFUs were compared to the CP55,940 Emax RFUs to generate % Emax values. For the CB2 agonist and antagonist assays, the same procedures were followed except that stable human CB2—CHO-RD-HGA16 cells were used.
Data Analysis: For calcium mobilization experiments, data were fit to a three-parameter logistic curve to generate IC50 values (GraphPad Prism 6.0, Graphpad Software, San Diego, California, United States of America). For [^35S]GTPγS experiments, data were normalized to maximal CP55,940 (100 nM) stimulation in the absence of test compound (i.e., vehicle=100%).

[6] = Metabolic stability in rat liver microsomes; format: in vitro ADME
Description: Metabolic stability assessment: Compounds were incubated with rat liver microsomes at 37° C. for a total of 45 minutes. The reaction was performed at pH 7.4 in 100 mM potassium phosphate buffer containing 0.5 mg/mL of rat liver microsomal protein. Phase I metabolism was assessed by adding NADPH to a final concentration of 1 mM and collecting samples at time points 0, 5, 15, 30 and 45 minutes. All collected samples were quenched 1:1 with ice-cold stop solution (1 μM labetalol and 1 μM glyburide in acetonitrile) and centrifuged to remove precipitated protein. Resulting supernatants were further diluted 1:4 with acetonitrile:water (1:1). Samples were analyzed by LC/MS/MS and calculations for half-life, and in-vitro clearance were accomplished using Microsoft Excel (2007).

[7] = system: rats; conditions: cited from earlier work
[8] = in vivo; cited from earlier work
[9] = system: rats; conditions: 10 mg/kg; cited from earlier work

Human CB1, sequence (P21554 whole entry): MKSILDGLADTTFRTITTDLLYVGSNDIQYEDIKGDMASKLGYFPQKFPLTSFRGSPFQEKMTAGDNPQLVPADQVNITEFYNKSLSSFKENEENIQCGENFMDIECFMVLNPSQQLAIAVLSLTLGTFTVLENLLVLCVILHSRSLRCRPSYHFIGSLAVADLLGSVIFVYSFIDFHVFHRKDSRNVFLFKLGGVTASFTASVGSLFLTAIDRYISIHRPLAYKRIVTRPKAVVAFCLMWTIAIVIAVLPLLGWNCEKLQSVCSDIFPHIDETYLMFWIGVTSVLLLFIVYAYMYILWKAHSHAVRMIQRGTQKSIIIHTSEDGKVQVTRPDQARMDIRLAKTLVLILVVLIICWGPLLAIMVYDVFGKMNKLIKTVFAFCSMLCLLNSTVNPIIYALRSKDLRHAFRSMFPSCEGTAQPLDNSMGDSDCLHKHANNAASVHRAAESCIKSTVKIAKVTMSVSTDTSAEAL

SMILES: O=c1c(NCCc2cccc(Cl)c2)c(Nc2ccc(Cl)cc2)c1=O [Compound 7, 3-[(4-Chlorophenyl)amino]-4-{[2-(3-chlorophenyl)ethyl]amino}cyclobut-3-ene-1,2-dione]
- Efflux ratio BA/AB ([1]; MDCK-MDR1): 2.1
- Papp A to B (x10^-6 cm/s) ([1]; MDCK-MDR1, 10 μM, apical to basolateral): 3.1 x10^-6 cm/s
- Papp B to A (x10^-6 cm/s) ([1]; MDCK-MDR1, 10 μM, basolateral to apical): 6.4 x10^-6 cm/s
- solubility kinetic at 2 h [2]: <1 µM
- % Plasma Protein Bound [3]: >99.74%
- Effect on locomotion [4]: without affecting locomotion
- Effect on locomotion ([4]; listed as Compound 6): did not affect locomotion
- IC50 [5]: 130 ± 12 nM
- microsomal CLint ([6]; pH 7.4, 0.5 mg/mL protein, NADPH, 37° C., read-out: Rat Liver microsome Clearance): 34.7 µL/min/mg
- half-life ([6]; pH 7.4, 0.5 mg/mL protein, NADPH, 37° C., read-out: Rat Liver microsome T1/2): 40 min
- Metabolic stability in rat liver microsomes compared with PSNCBAM-1 ([6]; versus PSNCBAM-1): better metabolic stability

SMILES: O=C(Nc1ccc(Cl)cc1)Nc1cccc(-c2cccc(N3CCCC3)n2)c1 [PSNCBAM-1, reference compound]
- Food intake and body weight in rats [7]: reduces food intake and body weight
- Rat Liver microsome T1/2 ([6]; 0.5 mg/mL protein, NADPH, 37° C.): 13 min

SMILES: N#Cc1ccc(NC(=O)Nc2cccc(-c3cccc(N4CCCC4)n3)c2)cc1 [RTICBM-28]
- THC's potency in drug discrimination [8]: reduces THC's potency in drug discrimination

SMILES: O=C(NCCc1cccc(Cl)c1)Nc1ccc(Cl)cc1 [RTICBM-189]
- Drug-induced reinstatement of cocaine seeking in rats [9]: attenuates drug-induced restatement of cocaine seeking
